The numbers were not newly measured in patent publication US5296224A, “Kava-kava extract, process for the production thereof and use thereof” (Dr. Wilmar Schwabe GmbH & Co., priority 1990, dated 1994), which cites them from elsewhere.

One data set concerns skin. Conditions: Shulgin 1973.
The conditions of data set [1]: 21° C.
The conditions of data set [2]: administered as pure substance; Kretschmer, MMW 4/1970.

Structures are written as SMILES.

On to `COc1ccc(/C=C/C(=O)c2c(O)cc(OC)cc2OC)cc1` [flavokawin A], for which the skin-specific secondary effects result in the data set with skin was “skin-specific secondary effects”.

As to `COc1cc(O)c(C(=O)/C=C/c2ccccc2)c(OC)c1` [flavokawin B], the skin-specific secondary effects result in the data set on skin is given as “skin-specific secondary effects”.

Regarding `COC1=CC(=O)O[C@@H](/C=C/c2ccccc2)C1` [kawain], the “maximum solubility in water” value in data set [1] was 2.2 mg/100 ml water. In addition, in data set [2], the effective daily dose result is listed as “about 200 mg”.
